These compounds were tested against human TPH1 (Homo sapiens (Human), UniProt P17752) (assay: Biochemical in vitro assay using fluorescence readout (TPH1 inhibition)). Conditions: full length human TPH1, 40 μM L-tryptophan, 15° C., 60 minutes, fluorescence at 540 nm; mean if determined several times.
Source text: Biochemical In Vitro Assay Using Fluorescence Readout
To generate the enzyme, full length human TPH1 is cloned into the plasmid pET20b(+) (Novagen) and expressed in E. coli. The bacterial cells are ruptured by sonication on ice and the lysate is cleared by centrifugation. The resulting protein in the pellet is re-extracted and TPH1 is purified from the obtained lysate by affinity chromatography using a pterin cosubstrate analog immobilized to the resin of the column. The protein is further purified by size exclusion chromatography to remove protein aggregates. The activity of TPH1 is determined by using a fluorescence assay. The enzyme activity assay is carried out at 15° C. with atmosphere oxygen for the duration of 60 minutes in a volume of 64 μl. The reaction is carried out in a 0.1 M Tris-HCl buffer, adjusted to pH 7.6, containing 1 mM DTT, 0.2 mg/mL catalase, 100 μM (±)-6-methyl-5,6,7,8-tetrahydropterine dihydrochloride, 40 μM L-tryptophan, and 40-80 nM of TPH1. The reaction is started by bringing together L-tryptophan with all the other reaction substituents and stopped by quenching with perchloric acid (HClO4). The amount of 5-hydroxy-L-tryptophan produced during the enzymatic reaction is determined by fluorescence readout. Fluorescence, as determined at 540 nm when excited at 300 nm wavelength, increases proportionally to the 5-hydroxy-L-tryptophan formed. Compounds are prepared as 10 mM stock solution in DMSO, then diluted in 384-well plates using DMSO followed by a transfer of the dilutions into the assay plate. Fluorescence is measured for each well and the fluorescence at 540 nm wavelength is compared to the fluorescence of the vehicle in place of compound. Inhibitory activities of example compounds with respect to the TPH1 protein are determined by calculating the IC50 value (the concentration of compound needed to inhibit 50% of the enzyme activity). The calculated IC50 values may fluctuate depending on the daily biochemical assay performance. Fluctuations of this kind are known to those skilled in the art.

human TPH1, sequence (P17752 whole entry): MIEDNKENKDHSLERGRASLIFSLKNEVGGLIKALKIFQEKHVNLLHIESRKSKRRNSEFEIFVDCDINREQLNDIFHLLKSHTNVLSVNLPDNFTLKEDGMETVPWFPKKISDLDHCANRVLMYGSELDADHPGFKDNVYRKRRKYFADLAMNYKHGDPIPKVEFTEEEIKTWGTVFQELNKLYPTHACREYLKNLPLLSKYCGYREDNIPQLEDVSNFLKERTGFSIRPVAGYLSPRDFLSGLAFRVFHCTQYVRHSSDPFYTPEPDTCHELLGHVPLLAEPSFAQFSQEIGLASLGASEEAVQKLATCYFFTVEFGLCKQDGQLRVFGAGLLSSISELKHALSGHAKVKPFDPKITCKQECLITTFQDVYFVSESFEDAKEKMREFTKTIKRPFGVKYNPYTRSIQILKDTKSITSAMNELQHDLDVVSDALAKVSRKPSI

`Cc1nn2c3c(nc2s1)CCN(C(=O)COc1ccc(NS(=O)(=O)C2CC2)nc1Cl)C3c1ccc(Cl)cc1F` (stereo not shown) [Example 1.4.16, N-(6-Chloro-5-(2-(5-(4-chloro-2-fluorophenyl)-2-methyl-7,8-dihydro-[1,3,4]thiadiazolo[2′,3′:2,3]imidazo[4,5-c]pyridin-6(5H)-yl)-2-oxoethoxy)pyridin-2-yl)-cyclopropanesulfonamide] and `Cc1nn2c3c(nc2s1)CCN(C(=O)COc1ccc(NS(=O)(=O)C2CC2)cc1Cl)C3c1ccc(Cl)cc1F` (stereo not shown) [Example 1.4.30, N-(3-Chloro-4-(2-(5-(4-chloro-2-fluorophenyl)-2-methyl-7,8-dihydro-[1,3,4]thiadiazolo[2′,3′:2,3]imidazo[4,5-c]pyridin-6(5H)-yl)-2-oxoethoxy)phenyl)cyclo-propanesulfonamide] are within 1.5-fold of each other in IC50: 7 nM for the first, 10 nM for the second.

Going from `Cc1nn2c3c(nc2s1)CCN(C(=O)COc1ccc(N2CCCC2=O)nc1Cl)C3c1ccc(Cl)cc1F` (stereo not shown) [Example 1.4.17, 1-(6-Chloro-5-(2-(5-(4-chloro-2-fluorophenyl)-2-methyl-7,8-dihydro-[1,3,4]thiadiazolo[2′,3′:2,3]imidazo[4,5-c]pyridin-6(5H)-yl)-2-oxoethoxy)pyridin-2-yl)pyrrolidin-2-one] to `Cc1nn2c3c(nc2s1)CCN(C(=O)COc1ccc(N2CCNCC2=O)nc1Cl)C3c1ccc(Cl)cc1F` (stereo not shown) [Example 1.4.35, 1-(6-chloro-5-(2-(5-(4-chloro-2-fluorophenyl)-2-methyl-7,8-dihydro-[1,3,4]thiadiazolo[2′,3′:2,3]imidazo[4,5-c]pyridin-6(5H)-yl)-2-oxoethoxy)pyridin-2-yl)piperazin-2-one], the IC50 rises from 2 nM to 6 nM (3-fold). The first is the more potent here.

`Cc1nn2c3c(nc2s1)CCN(C(=O)COc1ccc(N2CC(F)(F)C2)nc1Cl)C3c1ccc(Cl)cc1F` (stereo not shown) [Example 1.4.18, 1-(5-(4-Chloro-2-fluorophenyl)-2-methyl-7,8-dihydro-[1,3,4]thiadiazolo[2′,3′:2,3]imidazo[4,5-c]pyridin-6(5H)-yl)-2-((2-chloro-6-(3,3-difluoroazetidin-1-yl)-pyridin-3-yl)oxy)ethanone] and `Cc1nn2c3c(nc2s1)CCN(C(=O)COc1ccc(N2CCC(F)(F)C2)nc1Cl)C3c1ccc(Cl)cc1F` (stereo not shown) [Example 1.4.37, 1-(5-(4-Chloro-2-fluorophenyl)-2-methyl-7,8-dihydro-[1,3,4]thiadiazolo[2′,3′:2,3]imidazo[4,5-c]pyridin-6(5H)-yl)-2-((2-chloro-6-(3,3-difluoropyrrolidin-1-yl)pyridin-3-yl)oxy)ethanone] are the same in IC50: 3 nM for the first, 3 nM for the second.

Compared with `Cc1nn2c3c(nc2s1)CCN(C(=O)COc1ccc(N2C[C@@H](C)C[C@H](C)C2)nc1Cl)C3c1ccc(Cl)cc1F` (stereo partly drawn) [Example 1.4.20, 1-(5-(4-Chloro-2-fluorophenyl)-2-methyl-7,8-dihydro-[1,3,4]thiadiazolo[2′,3′:2,3]imidazo[4,5-c]pyridin-6(5H)-yl)-2-((2-chloro-6-((3S,5S)-3,5-dimethylpipe-ridin-1-yl)pyridin-3-yl)oxy)ethanone], `Cc1nn2c3c(nc2s1)CCN(C(=O)COc1ccc(N2CC4CC2CO4)nc1Cl)C3c1ccc(Cl)cc1F` (stereo not shown) [Example 1.4.33, 2-((6-(2-Oxa-5-azabicyclo[2.2.1]heptan-5-yl)-2-chloropyridin-3-yl)oxy)-1-(5-(4-chloro-2-fluorophenyl)-2-methyl-7,8-dihydro-[1,3,4]thiadiazolo[2′,3′:2,3]imidazo[4,5-c]pyridin-6(5H)-yl)ethanone] is 1.5-fold lower in IC50: 3 nM for the first, 2 nM for the second. The second is the more potent here.

First: Cc1nn2c3c(nc2s1)CCN(C(=O)COc1ccc(N)nc1Cl)C3c1ccc(Cl)cc1F (stereo not shown) [Example 1.4.22, 2-((6-amino-2-chloropyridin-3-yl)oxy)-1-(5-(4-chloro-2-fluorophenyl)-2-methyl-7,8-dihydro-[1,3,4]thiadiazolo[2′,3′:2,3]imidazo[4,5-c]pyridin-6(5H)-yl)-ethanone]
Second: CNc1ccc(OCC(=O)N2CCc3nc4sc(C)nn4c3C2c2ccc(Cl)cc2F)c(Cl)n1 (stereo not shown) [Example 1.4.27, 1-(5-(4-Chloro-2-fluorophenyl)-2-methyl-7,8-dihydro-[1,3,4]thiadiazolo[2′,3′:2,3]imidazo[4,5-c]pyridin-6(5H)-yl)-2-((2-chloro-6-(methylamino)pyridin-3-yl)oxy)ethanone]
The IC50 of the first is 1.7-fold higher: 10 nM for the first, 6 nM for the second. The second is the more potent here.

Compared with `Cc1nn2c3c(nc2s1)CCN(C(=O)COc1ccc(C(=O)NCC#N)nc1Cl)C3c1ccc(Cl)cc1F` (stereo not shown) [Example 1.4.23, 6-Chloro-5-(2-(5-(4-chloro-2-fluorophenyl)-2-methyl-7,8-dihydro-[1,3,4]thiadiazolo[2′,3′:2,3]imidazo[4,5-c]pyridin-6(5H)-yl)-2-oxoethoxy)-N-(cyano-methyl)picolinamide], `Cc1nn2c3c(nc2s1)CCN(C(=O)COc1ccc(C(=O)NO)nc1Cl)C3c1ccc(Cl)cc1F` (stereo not shown) [Example 1.4.25, 6-Chloro-5-(2-(5-(4-chloro-2-fluorophenyl)-2-methyl-7,8-dihydro-[1,3,4]thiadiazolo[2′,3′:2,3]imidazo[4,5-c]pyridin-6(5H)-yl)-2-oxoethoxy)-N-hydroxy-picolinamide] is 18-fold lower in IC50: 247 nM for the first, 14 nM for the second.

First: Cc1nn2c3c(nc2s1)CCN(C(=O)COc1ccc(C(N)=O)cc1Cl)C3c1ccc(Cl)cc1F (stereo not shown) [Example 1.4.26, 3-Chloro-4-(2-(5-(4-chloro-2-fluorophenyl)-2-methyl-7,8-dihydro-[1,3,4]thiadiazolo[2′,3′:2,3]imidazo[4,5-c]pyridin-6(5H)-yl)-2-oxoethoxy)benzamide]
Second: Cc1nn2c3c(nc2s1)CCN(C(=O)COc1ccc(C2CC2)cc1Cl)C3c1ccc(Cl)cc1F (stereo not shown) [Example 1.4.34, 1-(5-(4-Chloro-2-fluorophenyl)-2-methyl-7,8-dihydro-[1,3,4]thiadiazolo[2′,3′:2,3]imidazo[4,5-c]pyridin-6(5H)-yl)-2-(2-chloro-4-cyclopropylphenoxy)-ethanone]
The IC50 of the first is 2.5-fold higher: 10 nM for the first, 4 nM for the second. The second is the more potent here.

First: Cc1nn2c3c(nc2s1)CCN(C(=O)COc1ccc(C2CC2)nc1Cl)C3c1ccc(Cl)cc1F (stereo not shown) [Example 1.4.28, 1-(5-(4-Chloro-2-fluorophenyl)-2-methyl-7,8-dihydro-[1,3,4]thiadiazolo[2′,3′:2,3]imidazo[4,5-c]pyridin-6(5H)-yl)-2-((2-chloro-6-cyclopropylpyridin-3-yl)oxy)-ethanone]
Second: Cc1nn2c3c(nc2s1)CCN(C(=O)COc1ccc(N2CCC(F)(F)CC2)nc1Cl)C3c1ccc(Cl)cc1F (stereo not shown) [Example 1.4.32, 1-(5-(4-Chloro-2-fluorophenyl)-2-methyl-7,8-dihydro-[1,3,4]thiadiazolo[2′,3′:2,3]imidazo[4,5-c]pyridin-6(5H)-yl)-2-((2-chloro-6-(4,4-difluoropiperidin-1-yl)pyridin-3-yl)oxy)ethanone]
The IC50 of the first is 2-fold higher: 6 nM for the first, 3 nM for the second.

Work on `Cc1nn2c3c(nc2s1)CCN(C(=O)COc1ccc(N2CC(F)(F)C2)cc1Cl)C3c1ccc(Cl)cc1F` (stereo not shown) [Example 1.4.29, 1-(5-(4-Chloro-2-fluorophenyl)-2-methyl-7,8-dihydro-[1,3,4]thiadiazolo[2′,3′:2,3]imidazo[4,5-c]pyridin-6(5H)-yl)-2-(2-chloro-4-(3,3-difluoroazetidin-1-yl)phe-noxy)ethanone] yielded an IC50 of 6 nM.

Same assay, conditions: human TPH1, fluorescence readout

`Cc1nn2c3c(nc2s1)CCN(C(=O)COc1ccc(C(N)=O)nc1Cl)C3c1ccc(Cl)cc1F` (stereo not shown) [Example 1.4.19, 6-chloro-5-(2-(5-(4-chloro-2-fluorophenyl)-2-methyl-7,8-dihydro-[1,3,4]thiadiazolo[2′,3′:2,3]imidazo[4,5-c]pyridin-6(5H)-yl)-2-oxoethoxy)picolinamide] and `CNC(=O)c1ccc(OCC(=O)N2CCc3nc4sc(C)nn4c3C2c2ccc(Cl)cc2F)c(Cl)n1` (stereo not shown) [Example 1.4.21, 6-chloro-5-(2-(5-(4-chloro-2-fluorophenyl)-2-methyl-7,8-dihydro-[1,3,4]thiadiazolo[2′,3′:2,3]imidazo[4,5-c]pyridin-6(5H)-yl)-2-oxoethoxy)-N-methylpicolinamide] are the same in IC50: 5 nM for the first, 5 nM for the second.

Compared with `Cc1nn2c3c(nc2s1)CCN(C(=O)COc1ccc(C#N)cc1Cl)C3c1ccc(Cl)cc1F` (stereo not shown) [Example 1.4.24, 3-chloro-4-(2-(5-(4-chloro-2-fluorophenyl)-2-methyl-7,8-dihydro-[1,3,4]thiadiazolo[2′,3′:2,3]imidazo[4,5-c]pyridin-6(5H)-yl)-2-oxoethoxy)benzonitrile], `Cc1nn2c3c(nc2s1)CCN(C(=O)COc1cnc(C(F)(F)F)nc1Cl)C3c1ccc(Cl)cc1F` (stereo not shown) [Example 1.4.36, 2-((4-chloro-2-(trifluoromethyl)pyrimidin-5-yl)oxy)-1-(5-(4-chloro-2-fluorophenyl)-2-methyl-7,8-dihydro-[1,3,4]thiadiazolo[2′,3′:2,3]imidazo[4,5-c]pyridin-6(5H)-yl)ethanone] is 3.5-fold higher in IC50: 11 nM for the first, 38 nM for the second. The first is the more potent here.

In the case of `CCn1nc(C(=O)OC)cc1OCC(=O)N1CCc2nc3sc(C)nn3c2C1c1ccc(Cl)cc1F` (stereo not shown) [Example 1.4.31, Methyl 5-(2-(5-(4-chloro-2-fluorophenyl)-2-methyl-7,8-dihydro-[1,3,4]thiadiazolo[2′,3′:2,3]imidazo[4,5-c]pyridin-6(5H)-yl)-2-oxoethoxy)-1-ethyl-1H-pyrazole-3-carboxylate], the IC50 is reported as 40 nM.
